Results taken from PMC9629815, “MK256 is a novel CDK8 inhibitor with potent antitumor activity in AML through downregulation of the STAT pathway” (Oncotarget, 2022).

Legend:
MOLM-14 xenograft model = test: MOLM-14 xenograft efficacy study, combination with venetoclax; type: in vivo, NOD SCID mice; details: venetoclax 25 mg/kg alone, oral once a day, 5 days on/2 days off
Procedure: In an efficacy study of the combination of MK256 and venetoclax in the MOLM-14 tumor model, we compared venetoclax 25 mg/kg, venetoclax 25 mg/kg + MK256 10 mg/kg, and venetoclax 25 mg/kg + MK256 50 mg/kg. Compounds were given orally once a day on a 5 days on/2 days off schedule.
Female NOD SCID mice were purchased from Charles River Laboratories (Wilmington, USA) or bred at the animal facilities of the University of California San Francisco. All animal experiments were carried out under protocols approved by the Institutional Animal Care and Use Committee of the University of California San Francisco. For MOLM-14 model, 200 ul of 1 × 10^6 cells combined with matrigel (v/v, 1:1) were injected subcutaneously in the right flank of NODSCID mice. Tumors were allowed to grow for two weeks to reach a tumor volume about 200 mm^3 before mice were randomly grouped. The animals were treated for three weeks on a 5 days on/2 days off schedule by oral gavage with MK256 (dissolved in saline) alone or in combination with Venetoclax (dissolved in 5% DMSO + 50% PEG 300 + 5% Tween 80 + ddH2O). […] In the combination study, MK256 (10 or 50 mg/kg) and was coadministered with Venetoclax (25 mg/kg) once a day. Tumor volume and body weight were monitored once every 3 days. Tumor volume was calculated as L × W^2/2, where L and W were the length and width of the tumor, respectively.

MOLM-14 cells = test: Cell viability dose-response matrix of MK256 and venetoclax; type: cell-based; details: Homo sapiens, MK256 0.0 nM, 72 hrs, read-out: percentage of cell viability
Text: Our earlier experiments showing the clearly increasing expression of BCL-2 in the MOLM-14 cell line led us to ask if there was any combinational effect between MK256 and a BCL-2 inhibitor in MOLM-14 cells. To address this question, we chose venetoclax (ABT-199), an FDA-approved BCL-2 inhibitor for AML and CLL, for the combination study. We treated MOLM-14 cells with MK256 and venetoclax at a series of concentration combinations, measured cell viability, and reported the data in a dose-response matrix (Figure 8). […] We also investigated the apoptotic effect of the combination treatment in the MOLM-14 cell line (Figure 10B).
Figure 10 (A) Dose-response matrix of percentage of cell viability of 10,000 MOLM-14 cells after 72 hrs treatment of MK256 and venetoclax at various concentration combinations. (B) Annexin V staining of 10,000 MOLM-14 cells after 72 hrs treatment of MK256 and venetoclax(ABT199) at various concentration combinations. Status of cells are labeled in the graph at the upper left corner. (C) Tumor growth of MOLM-14 xenograft model. Groups of control; ABT199 (25 mg/kg); ABT199 (25 mg/kg) + MK256 (10 mg/kg); ABT199 25 mg/kg + MK256 (50 mg/kg) were shown in straight line, dotted line, 3 dashed line and 2 dashed line, respectively. ^*** P < 0.001. (D) Body weight percentage of MOLM-14 tumor model. […]

Work on `CC1(C)CCC(CN2CCN(c3ccc(C(=O)NS(=O)(=O)c4ccc(NCC5CCOCC5)c([N+](=O)[O-])c4)c(Oc4cnc5[nH]ccc5c4)c3)CC2)=C(c2ccc(Cl)cc2)C1` [Venetoclax, venetoclax, reference compound] yielded a tumor growth inhibition (MOLM-14 xenograft model) of 15%, a viability at 0.0002 µM (MOLM-14 cells; Venetoclax 0.2 nM) of 65% and a viability at 0.0014 µM (MOLM-14 cells; Venetoclax 1.4 nM) of 45%. It also gave a viability at 0.0041 µM (MOLM-14 cells; Venetoclax 4.1 nM) of 26%, a viability at 0.0123 µM (MOLM-14 cells; Venetoclax 12.3 nM) of 12% and a viability at 0.037 µM (MOLM-14 cells; Venetoclax 37 nM) of 8%. The viability at 0.1111 µM (MOLM-14 cells; Venetoclax 111.1 nM) was 7%, the viability at 0.3333 µM (MOLM-14 cells; Venetoclax 333.3 nM) was 5% and the viability at 1 µM (MOLM-14 cells; Venetoclax 1000 nM) was 2%. The viability at 3 µM (MOLM-14 cells; Venetoclax 3000 nM) was 0%.
